Results taken from ChEMBL document CHEMBL1201862, “PubChem BioAssay data set” (2004).
Activity calls are given as the source filed them.

Columns and labels:
[1] = biological target: T1, Runt-related transcription factor 1/Core-binding factor subunit beta (Homo sapiens, UniProt Q01196+Q13951); experiment: inhibitors of RUNX1 Runt–CBFb-SMMHC binding, biochemical, TR-FRET (AID 1438); type: protein assay
[2] = biological target: T1, Runt-related transcription factor 1/Core-binding factor subunit beta; experiment: inhibitors of RUNX1 Runt–CBFb-SMMHC binding, primary screen, biochemical, FRET, Cerulean-Runt, Venus-CBFb-SMMHC, uHTS (AID 1434); type: protein assay;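 note: partner is the CBFb-SMMHC leukemia fusion protein rather than wild-type CBFb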
[3] = biological target: Induced myeloid leukemia cell differentiation protein Mcl-1 (Homo sapiens, UniProt Q07820); type: functional
[4] = HEp-2 cell cytotoxicity, dose response, cytotoxicity control for RSV inhibitor project, HTS (AID 2410); type: functional; conditions: human respiratory syncytial virus
SUMO-activating enzyme = SUMO-activating enzyme (Homo sapiens, UniProt Q9UBT2); experiment: SUMOylation inhibitor hit validation, confirmation, SUMOylation inhibitor project, biochemical, AlphaScreen (AID 2018); type: functional
Cannabinoid receptor 2 [5] = biological target: T2, Cannabinoid receptor 2 (Homo sapiens, UniProt P34972); experiment: SAR analysis of agonists of the Cannabinoid Receptor 2 using an Image-Based Assay - Set 3. [Related pubchem assays (depositor defined):AID2013, AID2026]; type: functional
T2 sequence (P34972 whole entry): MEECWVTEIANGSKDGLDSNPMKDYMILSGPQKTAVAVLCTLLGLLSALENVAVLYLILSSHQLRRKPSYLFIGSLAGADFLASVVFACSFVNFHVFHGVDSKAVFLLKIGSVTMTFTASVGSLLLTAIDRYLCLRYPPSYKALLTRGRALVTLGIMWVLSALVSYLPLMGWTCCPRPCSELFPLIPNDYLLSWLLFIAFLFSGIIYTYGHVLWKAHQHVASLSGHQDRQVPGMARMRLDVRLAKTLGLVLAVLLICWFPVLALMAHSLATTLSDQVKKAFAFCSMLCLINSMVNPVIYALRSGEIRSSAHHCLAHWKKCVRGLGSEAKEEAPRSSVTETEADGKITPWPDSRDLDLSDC

[6] = biological target: T3, Probable nicotinate-nucleotide adenylyltransferase (Staphylococcus aureus (strain N315), UniProt P65502); type: functional, Staphylococcus aureus subsp. aureus N315; conditions: read-out: IC50_Mean;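 for IC50 Mean: confirmatory dose-response retesting of NadD inhibitor hits first found in an ultra-high-throughput screen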
T3 sequence (P65502 whole entry): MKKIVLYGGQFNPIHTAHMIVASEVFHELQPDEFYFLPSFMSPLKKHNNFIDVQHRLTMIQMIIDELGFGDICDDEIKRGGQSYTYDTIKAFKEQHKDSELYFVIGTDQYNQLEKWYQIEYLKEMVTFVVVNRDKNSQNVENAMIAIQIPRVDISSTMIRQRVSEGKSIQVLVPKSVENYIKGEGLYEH

[7] = biological target: G-protein coupled receptor 55 (Homo sapiens, UniProt Q9Y2T6); experiment: SAR Analysis of Selective Antagonists of GPR55 using an Image-Based Assay - Set 4. [Related pubchem assays (depositor defined):AID2013, AID2026]; type: functional;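 note: antagonism of response to 5 µM lysophosphatidylinositol agonist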
Cannabinoid receptor 1 [8] = biological target: T4, Cannabinoid receptor 1 (Homo sapiens, UniProt P21554); experiment: SAR analysis of antagonists of the Cannabinoid Receptor 1 using an Image-Based Assay - Set 4. [Related pubchem assays (depositor defined):AID2013, AID2026]; type: functional
T4 sequence (P21554 whole entry): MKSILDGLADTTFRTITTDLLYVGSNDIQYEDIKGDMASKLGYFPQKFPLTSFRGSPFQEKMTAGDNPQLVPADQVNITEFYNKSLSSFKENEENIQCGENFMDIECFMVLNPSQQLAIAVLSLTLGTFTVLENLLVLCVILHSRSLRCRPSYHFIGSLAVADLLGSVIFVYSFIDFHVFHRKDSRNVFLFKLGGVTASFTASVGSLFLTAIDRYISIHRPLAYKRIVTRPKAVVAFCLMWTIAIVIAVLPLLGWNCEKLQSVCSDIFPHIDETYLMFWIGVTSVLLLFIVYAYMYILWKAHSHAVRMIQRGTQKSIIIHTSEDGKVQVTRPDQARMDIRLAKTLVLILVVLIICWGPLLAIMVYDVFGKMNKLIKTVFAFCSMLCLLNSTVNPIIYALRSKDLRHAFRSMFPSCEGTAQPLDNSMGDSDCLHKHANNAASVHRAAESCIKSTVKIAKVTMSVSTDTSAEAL

[9] = biological target: T5, G-protein coupled receptor 35 (Homo sapiens, UniProt Q9HC97); experiment: SAR analysis of Antagonists of the GPR35 Receptor using an Image-Based Assay - Set 6. [Related pubchem assays (depositor defined):AID2013, AID2026]; type: functional
T5 sequence (Q9HC97 whole entry): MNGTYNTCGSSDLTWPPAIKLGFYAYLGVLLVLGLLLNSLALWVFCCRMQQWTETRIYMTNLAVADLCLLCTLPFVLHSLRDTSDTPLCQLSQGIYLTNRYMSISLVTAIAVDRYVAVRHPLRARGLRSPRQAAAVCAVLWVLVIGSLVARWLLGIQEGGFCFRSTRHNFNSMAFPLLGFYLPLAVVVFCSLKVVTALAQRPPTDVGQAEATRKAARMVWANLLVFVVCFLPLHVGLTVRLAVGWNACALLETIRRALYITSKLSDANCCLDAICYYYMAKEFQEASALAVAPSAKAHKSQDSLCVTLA

[10] = biological target: T3, Probable nicotinate-nucleotide adenylyltransferase; type: functional, Staphylococcus aureus subsp. aureus N315
Cannabinoid receptor 1 [11] = biological target: T4, Cannabinoid receptor 1; experiment: SAR analysis of agonists of the Cannabinoid Receptor 1 using an Image-Based Assay - Set 4. [Related pubchem assays (depositor defined):AID2013, AID2026]; type: functional
Cannabinoid receptor 2 [12] = biological target: T2, Cannabinoid receptor 2; experiment: SAR analysis of antagonists of the Cannabinoid Receptor 2 using an Image-Based Assay - Set 3. [Related pubchem assays (depositor defined):AID2013, AID2026]; type: functional
[13] = biological target: T5, G-protein coupled receptor 35; experiment: SAR analysis of Agonists of the GPR35 Receptor using an Image-Based Assay - Set 4. [Related pubchem assays (depositor defined):AID2013, AID2026]; type: functional
Fatty acid synthase [14] = biological target: T6, Fatty acid synthase (Homo sapiens, UniProt P49327); experiment: FAS thioesterase domain inhibitors, dose response, biochemical, kinetic fluorescence intensity (AID 624326); type: functional;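 note: rate of fluorescence rise from hydrolysis of a fluorogenic O-methyl fluorescein ester substrate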
T6 sequence (P49327 whole entry, the tested form may be a part): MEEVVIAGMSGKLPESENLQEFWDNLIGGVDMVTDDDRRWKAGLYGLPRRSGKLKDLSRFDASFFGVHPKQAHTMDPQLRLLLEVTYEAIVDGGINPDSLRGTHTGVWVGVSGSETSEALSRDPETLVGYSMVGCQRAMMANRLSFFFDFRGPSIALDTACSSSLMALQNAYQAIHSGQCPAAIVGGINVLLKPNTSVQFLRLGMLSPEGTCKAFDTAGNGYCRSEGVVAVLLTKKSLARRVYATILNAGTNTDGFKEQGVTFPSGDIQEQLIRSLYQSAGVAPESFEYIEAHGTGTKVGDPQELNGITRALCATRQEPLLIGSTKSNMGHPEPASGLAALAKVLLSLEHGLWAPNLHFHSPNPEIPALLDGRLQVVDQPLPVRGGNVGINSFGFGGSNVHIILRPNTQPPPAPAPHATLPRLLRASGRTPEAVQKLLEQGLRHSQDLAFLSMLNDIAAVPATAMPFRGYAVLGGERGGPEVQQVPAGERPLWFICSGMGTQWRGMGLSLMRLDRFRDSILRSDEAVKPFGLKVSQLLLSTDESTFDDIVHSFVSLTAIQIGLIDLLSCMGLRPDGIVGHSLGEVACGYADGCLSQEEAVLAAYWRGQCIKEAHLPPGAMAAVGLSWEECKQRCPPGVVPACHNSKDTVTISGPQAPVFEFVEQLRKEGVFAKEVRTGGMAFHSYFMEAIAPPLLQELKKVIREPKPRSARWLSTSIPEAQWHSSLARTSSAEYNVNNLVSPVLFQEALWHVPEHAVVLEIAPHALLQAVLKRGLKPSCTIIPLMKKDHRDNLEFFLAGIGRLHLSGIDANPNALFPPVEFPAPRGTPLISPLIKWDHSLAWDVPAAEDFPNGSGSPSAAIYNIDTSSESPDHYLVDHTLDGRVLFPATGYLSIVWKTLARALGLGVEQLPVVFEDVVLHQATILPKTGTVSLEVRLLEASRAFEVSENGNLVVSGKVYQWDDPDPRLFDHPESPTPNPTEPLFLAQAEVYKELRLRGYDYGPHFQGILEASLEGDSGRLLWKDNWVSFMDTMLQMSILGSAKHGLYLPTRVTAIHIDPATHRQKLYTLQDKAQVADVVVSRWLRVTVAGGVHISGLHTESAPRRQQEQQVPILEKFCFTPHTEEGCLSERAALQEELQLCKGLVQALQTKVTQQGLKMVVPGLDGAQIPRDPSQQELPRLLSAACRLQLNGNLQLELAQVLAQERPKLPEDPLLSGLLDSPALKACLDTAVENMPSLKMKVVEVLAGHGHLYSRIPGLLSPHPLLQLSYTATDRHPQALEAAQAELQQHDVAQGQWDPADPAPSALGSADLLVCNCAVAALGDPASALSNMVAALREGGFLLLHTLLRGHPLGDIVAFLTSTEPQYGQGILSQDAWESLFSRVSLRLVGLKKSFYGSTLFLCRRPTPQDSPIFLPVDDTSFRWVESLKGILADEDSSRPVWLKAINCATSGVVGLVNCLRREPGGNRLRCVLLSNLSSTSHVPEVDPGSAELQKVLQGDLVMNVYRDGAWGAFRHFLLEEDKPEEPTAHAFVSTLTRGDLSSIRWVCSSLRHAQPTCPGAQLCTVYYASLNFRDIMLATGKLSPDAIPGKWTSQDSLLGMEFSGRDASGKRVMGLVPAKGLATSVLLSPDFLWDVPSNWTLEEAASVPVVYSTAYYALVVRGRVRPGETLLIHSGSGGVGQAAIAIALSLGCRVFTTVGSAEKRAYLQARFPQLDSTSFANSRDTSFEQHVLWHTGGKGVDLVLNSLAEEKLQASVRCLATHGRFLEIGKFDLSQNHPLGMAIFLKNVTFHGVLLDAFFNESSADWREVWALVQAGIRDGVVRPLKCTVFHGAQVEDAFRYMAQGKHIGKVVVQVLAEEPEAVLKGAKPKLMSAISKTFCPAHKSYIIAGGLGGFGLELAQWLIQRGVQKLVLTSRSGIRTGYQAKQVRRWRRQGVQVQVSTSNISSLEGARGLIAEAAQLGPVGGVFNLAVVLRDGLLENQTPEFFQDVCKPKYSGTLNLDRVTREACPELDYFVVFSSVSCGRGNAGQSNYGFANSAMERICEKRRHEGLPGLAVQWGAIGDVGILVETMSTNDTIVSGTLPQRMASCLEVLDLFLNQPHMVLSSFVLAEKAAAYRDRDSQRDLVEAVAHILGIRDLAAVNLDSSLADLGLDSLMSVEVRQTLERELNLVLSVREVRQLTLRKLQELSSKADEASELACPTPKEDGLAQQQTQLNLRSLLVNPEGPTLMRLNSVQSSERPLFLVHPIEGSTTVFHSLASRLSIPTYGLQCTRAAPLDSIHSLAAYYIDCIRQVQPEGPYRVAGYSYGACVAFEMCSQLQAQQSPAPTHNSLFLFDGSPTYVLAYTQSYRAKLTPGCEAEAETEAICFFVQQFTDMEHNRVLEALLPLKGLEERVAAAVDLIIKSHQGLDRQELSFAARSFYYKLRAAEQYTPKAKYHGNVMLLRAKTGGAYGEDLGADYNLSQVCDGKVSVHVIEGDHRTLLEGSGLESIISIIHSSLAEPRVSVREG

Protein RecA = biological target: T7, Protein RecA (Mycobacterium tuberculosis, UniProt P9WHJ3); experiment: Fluorescence Cell-Free Homogeneous Dose Retest to Identify Inhibitors of RecA-Intein Splicing Activity. [Related pubchem assays (depositor defined):AID2097, AID2223, AID489010, AID492950]; type: functional
T7 sequence (P9WHJ3 whole entry): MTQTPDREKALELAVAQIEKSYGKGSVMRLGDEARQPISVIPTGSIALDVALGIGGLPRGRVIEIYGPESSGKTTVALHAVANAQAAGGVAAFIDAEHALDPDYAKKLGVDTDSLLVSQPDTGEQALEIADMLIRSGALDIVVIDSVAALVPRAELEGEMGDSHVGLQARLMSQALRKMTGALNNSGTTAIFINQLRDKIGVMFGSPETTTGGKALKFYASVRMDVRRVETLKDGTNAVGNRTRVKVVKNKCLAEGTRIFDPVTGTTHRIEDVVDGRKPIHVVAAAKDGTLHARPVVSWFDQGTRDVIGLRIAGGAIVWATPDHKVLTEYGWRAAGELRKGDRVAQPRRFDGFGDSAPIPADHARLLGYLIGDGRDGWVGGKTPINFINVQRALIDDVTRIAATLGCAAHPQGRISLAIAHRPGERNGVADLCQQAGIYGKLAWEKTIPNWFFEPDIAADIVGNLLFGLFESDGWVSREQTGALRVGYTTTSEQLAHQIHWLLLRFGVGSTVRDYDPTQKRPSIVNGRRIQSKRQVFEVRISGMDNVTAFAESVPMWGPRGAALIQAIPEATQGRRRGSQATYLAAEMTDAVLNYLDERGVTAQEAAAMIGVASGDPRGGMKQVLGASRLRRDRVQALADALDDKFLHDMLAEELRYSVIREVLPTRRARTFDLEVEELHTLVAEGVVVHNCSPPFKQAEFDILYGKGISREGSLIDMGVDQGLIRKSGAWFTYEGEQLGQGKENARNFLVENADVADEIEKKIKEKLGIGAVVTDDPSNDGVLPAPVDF

Fatty acid synthase [15] = biological target: T6, Fatty acid synthase; experiment: FAS thioesterase domain inhibitors, dose response, biochemical, endpoint fluorescence intensity, uHTS hits (AID 624327); type: functional;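 note: fluorescence from hydrolysis of an O-methyl fluorescein acyl ester substrate by the enzyme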
[16] = Luminescence Cell-Based Dose Retest to Confirm Inhibitors of Cancer Stem Cells. [Related pubchem assays (depositor defined):AID2717, AID2721]; type: functional; conditions: Homo sapiens
[17] = Intein inhibitors as potential Tuberculosis drugs, a cytotoxicity screen. [Related pubchem assays (depositor defined):AID2221, AID2223, AID434968, AID435010, AID449749, AID449750, AID489010]; type: functional
[18] = biological target: T8, Replicative DNA helicase DnaB (Mycobacterium tuberculosis, UniProt P9WMR3); experiment: DnaB intein splicing inhibitors, dose response, biochemical, cell-free fluorescence (AID 449749); type: functional
T8 sequence (P9WMR3 whole entry): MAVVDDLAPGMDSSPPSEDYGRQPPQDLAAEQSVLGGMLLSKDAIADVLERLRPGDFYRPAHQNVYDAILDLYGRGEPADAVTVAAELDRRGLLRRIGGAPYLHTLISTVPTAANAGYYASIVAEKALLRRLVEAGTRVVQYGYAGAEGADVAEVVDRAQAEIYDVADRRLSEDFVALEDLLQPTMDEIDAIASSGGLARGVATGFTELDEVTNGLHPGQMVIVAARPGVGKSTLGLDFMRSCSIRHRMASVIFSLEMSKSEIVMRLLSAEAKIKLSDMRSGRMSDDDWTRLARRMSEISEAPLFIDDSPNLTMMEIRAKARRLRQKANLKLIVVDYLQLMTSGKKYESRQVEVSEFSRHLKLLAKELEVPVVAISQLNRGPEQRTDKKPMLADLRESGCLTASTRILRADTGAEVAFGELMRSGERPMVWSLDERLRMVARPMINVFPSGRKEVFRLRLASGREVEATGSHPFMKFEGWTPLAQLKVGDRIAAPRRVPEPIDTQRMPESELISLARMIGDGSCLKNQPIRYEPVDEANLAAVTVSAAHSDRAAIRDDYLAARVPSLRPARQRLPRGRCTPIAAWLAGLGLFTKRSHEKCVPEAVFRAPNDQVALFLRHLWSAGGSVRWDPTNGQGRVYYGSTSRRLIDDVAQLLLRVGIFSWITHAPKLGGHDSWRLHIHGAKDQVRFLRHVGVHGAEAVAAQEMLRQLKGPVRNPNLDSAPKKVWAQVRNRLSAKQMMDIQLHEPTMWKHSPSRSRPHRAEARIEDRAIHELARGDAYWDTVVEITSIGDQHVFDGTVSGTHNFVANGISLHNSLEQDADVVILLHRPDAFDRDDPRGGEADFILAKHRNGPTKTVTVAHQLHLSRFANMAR

[19] = biological target: T9, E3 ubiquitin-protein ligase XIAP (Homo sapiens, UniProt P98170); experiment: Counter Screen using XIAP-Bir3 of the Chemical Antagonists of IAP-family anti-apoptotic proteins confirmation assay. [Related pubchem assays (depositor defined):AID1018, AID1449, AID1513, AID1638, AID1749, AID1750, AID488957, AID488963]
T9 sequence (P98170 whole entry): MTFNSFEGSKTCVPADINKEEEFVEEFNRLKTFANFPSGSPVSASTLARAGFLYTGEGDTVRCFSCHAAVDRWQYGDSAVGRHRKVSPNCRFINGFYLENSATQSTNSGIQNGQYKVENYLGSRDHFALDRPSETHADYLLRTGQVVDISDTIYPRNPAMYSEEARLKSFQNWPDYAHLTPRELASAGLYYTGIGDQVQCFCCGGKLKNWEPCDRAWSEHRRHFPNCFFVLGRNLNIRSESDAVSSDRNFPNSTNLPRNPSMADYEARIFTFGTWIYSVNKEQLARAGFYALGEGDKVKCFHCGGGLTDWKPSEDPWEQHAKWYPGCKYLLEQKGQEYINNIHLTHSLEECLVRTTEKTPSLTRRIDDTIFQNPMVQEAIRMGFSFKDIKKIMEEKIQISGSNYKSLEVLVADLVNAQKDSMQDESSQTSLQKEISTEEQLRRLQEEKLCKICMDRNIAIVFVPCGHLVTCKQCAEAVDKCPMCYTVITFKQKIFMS

[20] = biological target: T9, E3 ubiquitin-protein ligase XIAP; experiment: Chemical Antagonists of IAP-family anti-apoptotic proteins confirmation. [Related pubchem assays (depositor defined):AID1018, AID1513, AID1514, AID1638, AID1749, AID1750, AID488957, AID488963]
Leucine aminopeptidase = biological target: T10, Leucine aminopeptidase (Plasmodium falciparum 3D7, UniProt Q8IL11); experiment: P. falciparum M17LAP inhibitors, primary screen, biochemical, fluorogenic H-Leu-NHMec substrate, 1536-well (AID 1619); type: functional
T10 sequence (Q8IL11 whole entry): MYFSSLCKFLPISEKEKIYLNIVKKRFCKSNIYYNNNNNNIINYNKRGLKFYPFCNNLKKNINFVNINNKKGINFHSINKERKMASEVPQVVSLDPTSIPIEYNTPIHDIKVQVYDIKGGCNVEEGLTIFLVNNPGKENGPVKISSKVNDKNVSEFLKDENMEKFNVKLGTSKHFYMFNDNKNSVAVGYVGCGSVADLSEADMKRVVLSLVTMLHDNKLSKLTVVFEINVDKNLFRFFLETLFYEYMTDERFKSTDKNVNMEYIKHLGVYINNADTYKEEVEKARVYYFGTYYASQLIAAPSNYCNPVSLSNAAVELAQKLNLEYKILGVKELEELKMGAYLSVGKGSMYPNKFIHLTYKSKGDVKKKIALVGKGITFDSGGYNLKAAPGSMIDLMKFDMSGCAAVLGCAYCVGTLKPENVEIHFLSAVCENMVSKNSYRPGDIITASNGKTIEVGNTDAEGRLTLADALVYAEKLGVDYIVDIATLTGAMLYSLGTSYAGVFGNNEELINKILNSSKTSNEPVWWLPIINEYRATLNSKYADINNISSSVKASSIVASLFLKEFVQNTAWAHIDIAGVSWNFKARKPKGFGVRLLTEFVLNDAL

T1 sequence (Q01196 whole entry, the tested form may be a part): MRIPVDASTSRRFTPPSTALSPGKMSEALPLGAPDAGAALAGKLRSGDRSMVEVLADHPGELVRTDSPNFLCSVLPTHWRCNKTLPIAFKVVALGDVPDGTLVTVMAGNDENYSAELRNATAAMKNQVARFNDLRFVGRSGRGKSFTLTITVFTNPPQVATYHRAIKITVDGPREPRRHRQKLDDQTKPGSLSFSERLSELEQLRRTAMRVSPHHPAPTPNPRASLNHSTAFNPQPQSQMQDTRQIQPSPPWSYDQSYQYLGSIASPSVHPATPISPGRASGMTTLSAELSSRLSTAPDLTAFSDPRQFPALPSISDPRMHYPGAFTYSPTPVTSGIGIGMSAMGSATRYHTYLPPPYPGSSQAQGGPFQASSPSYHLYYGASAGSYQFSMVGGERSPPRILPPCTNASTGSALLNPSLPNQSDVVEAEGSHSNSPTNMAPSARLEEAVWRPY
T1 sequence (Q13951 whole entry, the tested form may be a part): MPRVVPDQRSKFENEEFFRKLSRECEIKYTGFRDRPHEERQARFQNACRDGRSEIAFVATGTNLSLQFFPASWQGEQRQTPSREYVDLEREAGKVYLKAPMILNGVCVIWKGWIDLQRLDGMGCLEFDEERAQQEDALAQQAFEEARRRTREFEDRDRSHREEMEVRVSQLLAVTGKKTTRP

Cc1ccc(Cn2c(=N)c(C(=O)NCc3ccco3)cc3c(=O)n4ccccc4nc32)cc1
IC50 [1]: 15.3 µM (active)
IC50 [2]: 0.475 µM (active)
IC50 [3]: 3.14 µM (active)

CCCCCCC#Cc1cncc(C(=O)NNC(=O)Nc2cc(Cl)cc(Cl)c2)c1
CC50 [4]: 9.35 µM (active)
IC50 (SUMO-activating enzyme): 59.8 µM (active)

O=C(Nc1ccc(S(=O)(=O)Nc2nccs2)cc1)c1cc(-c2ccncc2)nc2ccccc12
EC50 (Cannabinoid receptor 2 [5]): > 32 µM (inactive)
IC50 [6]: 21.6 µM (active)
IC50 [7]: > 32 µM (inactive)
IC50 (Cannabinoid receptor 1 [8]): 2.23 µM (active)
IC50 [9]: > 32 µM (inactive)
IC50 [10]: 6.6 µM (active)
EC50 (Cannabinoid receptor 1 [11]): > 32 µM (inactive)
IC50 [3]: 1.64 µM (active)
IC50 (Cannabinoid receptor 2 [12]): > 32 µM (inactive)
EC50 [13]: > 32 µM (inactive)

CC(NC(=O)COC(=O)c1cc(NS(=O)(=O)c2ccc(Cl)c([N+](=O)[O-])c2)ccc1O)C1CC2CCC1C2 (centres undefined)
IC50 (Fatty acid synthase [14]): 11.7 µM (active)
EC50 (Protein RecA): 3.7 µM (active)
IC50 (Fatty acid synthase [15]): 11.1 µM (active)
AC50 [16]: 3.17 µM (active)
CC50 [17]: 32.7 µM (active)
AC50 [18]: 2.01 µM (active)

O=C(O)[C@H](Cc1ccccc1)N1Cc2ccccc2C1=O
IC50 [19]: > 200 µM (inactive)
IC50 [20]: 131 µM (inactive)
IC50 (Leucine aminopeptidase): 6.47 µM (active)
